Laboratory results as given in the supplement of paper PMC11061612.

Assays:
Assay in all cases: combination Emax (second highest fraction inhibited in the dose matrix, 72 h); higher = more inhibition; extreme values may be limits of the assay
SF539 (Glioblastoma) = tested on: SF539 (Glioblastoma)
How it was run: (§1)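 Cell lines grown in DMEM/F12 or RPMI with 10% FBS were plated in 1536-well plates and held 24 hours at 37°C, 5% CO2 before 72 hours of exposure to two-drug dose matrices, with DMSO typically at 0.2%. CellTiter-Glo 2.0 luminescence gave viability, which was converted to inhibition. Vehicle wells were set to 0 and blank wells to 1. Combination Emax is the second-highest inhibition in the matrix, and Bliss excess is the observed combination effect minus the expected EA + EB − EA·EB, where EA and EB are the single-agent effects.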

[1] = tested on: MFE-280 (Endometrial Carcinoma)
How it was run: as §1

[2] = tested on: NCI-H2342 (Lung Adenocarcinoma)
How it was run: as §1

IST-MES1 (Mesothelioma) = tested on: IST-MES1 (Mesothelioma)
How it was run: as §1

SF268 (Low Grade Glioma) = tested on: SF268 (Low Grade Glioma)
How it was run: as §1

[3] = tested on: PC-3_[JPC-3] (Lung Adenocarcinoma)
How it was run: as §1

[4] = tested on: GP5d (Colorectal Carcinoma)
How it was run: as §1

[5] = tested on: HEC-1 (Endometrial Carcinoma)
How it was run: as §1

[6] = tested on: RCM-1 (Colorectal Carcinoma)
How it was run: as §1

[7] = tested on: PSN1 (Pancreatic Carcinoma)
How it was run: as §1

[8] = tested on: CAL-62 (Thyroid Gland Carcinoma)
How it was run: as §1

[9] = tested on: LB996-RCC (Kidney Carcinoma)
How it was run: as §1

[10] = tested on: OPM-2 (Plasma Cell Myeloma)
How it was run: as §1

[11] = tested on: LK-2 (Squamous Cell Lung Carcinoma)
How it was run: as §1

[12] = tested on: RKN (Other Solid Carcinomas)
How it was run: as §1

[13] = tested on: OAW-42 (Ovarian Carcinoma)
How it was run: as §1

[14] = tested on: FADU (Head and Neck Carcinoma)
How it was run: as §1

[15] = tested on: COLO-680N (Esophageal Squamous Cell Carcinoma)
How it was run: as §1

WM793B (Melanoma) = tested on: WM793B (Melanoma)
How it was run: as §1

[16] = tested on: SU-DHL-10 (B-Cell Non-Hodgkin's Lymphoma)
How it was run: as §1

## CC1(C)CCC(CN2CCN(c3ccc(C(=O)NS(=O)(=O)c4ccc(NCC5CCOCC5)c([N+](=O)[O-])c4)c(Oc4cnc5[nH]ccc5c4)c3)CC2)=C(c2ccc(Cl)cc2)C1 [Venetoclax] + Cn1cnc2c(F)c(Nc3ccc(Br)cc3Cl)c(C(=O)NOCCO)cc21 [Selumetinib] (first compound max 1 µM, 7x7, partner max 3 µM)
SF539 (Glioblastoma)
  combination Emax: 0.217
[1]
  combination Emax: 0.18
[2]
  combination Emax: 0.193
IST-MES1 (Mesothelioma)
  combination Emax: 0.161
SF268 (Low Grade Glioma)
  combination Emax: 0.157
[3]
  combination Emax: 0.173
[4]
  combination Emax: 0.71
[5]
  combination Emax: 0.0851
[6]
  combination Emax: 0.571
[7]
  combination Emax: 0.622
[8]
  combination Emax: 0.256
[9]
  combination Emax: 0.156
[10]
  combination Emax: 0.385
[11]
  combination Emax: 0.172
[12]
  combination Emax: 0.291
[13]
  combination Emax: 0.147
[14]
  combination Emax: 0.364
[15]
  combination Emax: 0.159
WM793B (Melanoma)
  combination Emax: 0.42
[16]
  combination Emax: 0.072
